Data from patent publication US8900564B2, “Vaccine composition comprising an antigen and a peptide having adjuvant properties” (Valneva Austria GmbH, priority 2000, dated 2014).
Entries after “also recorded” stand apart in the source; their conditions may differ. Ends that are not written are not given here.

Experiments:
[1] = system: P388D1 cells (murine monocyte-macrophage antigen presenting cell line); experiment: TRANSloading of murine macrophages: uptake of fluorescein-tagged antigenic peptide with carrier peptide, flow cytometry; type: cell-based; conditions: Example 1, FIG. 1; 2 μg antigenic peptide; carrier at 101.7, 50.9 and 5.09 nmol positive charges; 1 h at 37° C.
Text: To test if the (synthetic antimicrobial) peptide KLKLLLLLKLK (SEQ ID NO: 1) is able to function as “carrier-peptide” for antigens, to TRANSload APCs in vitro, which means enhancing the antigen uptake into APCs, a fluorescently labelled peptide was used as antigenic peptide. It was mixed with diverse concentrations of KLKLLLLLKLK (SEQ ID NO: 1) and other previously described “carrier-peptides” as indicated.
To compare the efficiency of peptide delivery of these diverse “carrier-peptides”, the amount of peptide uptake into APCs was monitored by incubating P388D1 cells (murine monocyte-macrophage antigen presenting cell line; purchased from ATCC (TIB-63)) for 1 h at 37° C. with a constant amount of fluorescein-tagged peptide alone or in combination with diverse “carrier-peptides” at concentrations indicated. Before analysing the cells by flow cytometry, the cells were washed extensively to remove free peptide. The relative amount of fluorescein-tagged peptide taken up by the cells was measured by flow cytometry.
The antigenic peptide used is an influenza-haemagglutinin-derived MHC class I (Kd) binding peptide (Buschle, M. (1997)). 2 μg of this fluorescein-tagged antigenic peptide (LFEAIEGFI) (SEQ ID NO:22) were mixed with 3 different amounts of each carrier peptide tested at concentrations representing 101.7, 50.9 and 5.09 nmol positive charges. […]

[2] = system: IFN-γ-producing specific cells (lymph node cells); experiment: Induction of peptide-specific T cell responses in vivo, IFN-γ ELISpot of lymph node cells after vaccination with TRP-2 peptide; parameters: species or system mice (C57BL/6)
Method: For testing the ability of the (synthetic antimicrobial) peptide KLKLLLLLKLK (SEQ ID NO: 1) to enhance the induction of peptide-specific T cell responses in vivo, groups of 4 mice (C57BL/6, female, 8 weeks of age, H-2b) were injected subcutaneously into the flank 3 times (days 0, 28, and 56), with an antigenic melanoma peptide (100 μg) derived from TRP-2 (mouse tyrosinase related protein-2) alone or in combination with either poly-Larginine or the (synthetic antimicrobial) peptide KLKLLL. LKLK (SEQ ID NO: 1) as “carrier peptide”. The amounts of the (synthetic antimicrobial) peptide KLKLLLLLKLK (SEQ ID NO: 1) used represent four different amounts at concentrations representing the equal amount (100 μg) of poly-L-arginine in terms of μg, the equal (168 μg), the double (336 μg) and the triple (504 μg) amount of poly-L-arginine in terms of positive charges. The groups of mice were injected as follows (amounts indicated/per mouse). • (1) 100 μg peptide • (2) 100 μg peptide+100 μg poly-L-arginine (pR 60) • (3) 100 μg peptide+100 μg KLKLLLLLKLK (SEQ ID NO: 1) • (4) 100 μg peptide+168 μg KLKLLLLLKLK (SEQ ID NO: 1) • (5) 100 μg peptide+336 μg KLKLLLLLKLK (SEQ ID NO: 1) • (6) 100 μg peptide+504 μg KLKLLLLLKLK (SEQ ID NO: 1) […]

Staphylococcus aureus = conditions: Staphylococcus aureus-infected mice; cited from earlier work
human neutrophils = conditions: via cell surface calreticulin; cited from earlier work

KLKLLLLLKLK [synthetic antimicrobial peptide used as carrier peptide/adjuvant]
fluorescence of TRANSloaded cells (uptake of fluorescein-tagged peptide LFEAIEGFI) [1]: high and intense fluorescence
IFN-γ-producing T cells specific for the carrier peptide itself, ELISpot ([2]; ELISpot-assay): does not elicit IFN-γ-producing peptide-specific T cells
IFN-γ-producing specific cells (TRP-2 peptide-specific), ELISpot ([2]; FIG. 3, s.c. days 0, 28, 56, 100 μg TRP-2 peptide plus 100-504 μg carrier, 12 days after 3rd vaccination, versus peptide alone or with poly-L-arginine): many more IFN-γ-producing specific cells; also recorded: enhances the induction of peptide-specific T cell responses in vivo

KLKLLLLLKLK-NH2 [synthetic antimicrobial peptide, amidated form]
chemotherapeutic activity (Staphylococcus aureus): significant chemotherapeutic activity
superoxide anion (O2−) production (human neutrophils): activated to produce the superoxide anion
